These results are taken from patent US7629140B2, “Assay for cytochrome P450 isoform 2C9” (Istituto di Richerche di Biologia Molecolare P. Angeletti …, priority 2004, dated 2009).

The structures appear in SMILES notation.

Data set [1] concerns the target T1, CYP2C9 (Homo sapiens, UniProt P11712). Briefly: Radiometric CYP2C9 assay using [4′-3H]-diclofenac: formation of [3H]-H2O in pooled human liver microsomes. As to the method:
(§1) Radiometric CYP2C9 assays using [4′-^3H]-diclofenac. […] (Woburn, Mass.). Inhibitors were added to the reaction mixture from stock solutions in DMSO/acetonitrile/water (35:25:40, v/v), giving final solvent concentrations of 0.7% DMSO and 0.5% acetonitrile. No inhibitor controls contained an equivalent amount of vehicle. Following preincubation for 10 minutes at 37° C., reactions were started by addition of 1 mM NADPH and an NADPH regenerating system containing 5 mM glucose-6-phosphate, 3 mM MgCl2, and 1 U/mL glucose-6-phosphate dehydrogenase. Assays were conducted for 10 minutes at 37° C. and stopped by addition of HCl to a final concentration of 0.1 N. Plates were then centrifuged for 10 minutes in a microplate rotor and supernatants loaded into the wells of a preconditioned 10 mg OASIS 96-well HLB plate. OASIS HLB 96 well extraction plates and vacuum manifold are available from Waters Corp., Newcastle, Del. Vacuum was applied and the void volume collected in the collection plate. Then, 75 μL of water was added, vacuum was applied again, and the wash was collected into the same plate. Pooled void volume and water wash were transferred into scintillation vials and counted in a beta-scintillation counter. Alternatively, aliquots were counted in 24- or 96-well scintillation plates using a TOPCOUNT scintillation counter (Packard, Perkin Elmer, Boston, Mass.). For the calculation of enzyme activity, product counts were corrected by subtraction of counts obtained in control incubations performed in the absence of NADPH regenerating system.
Calculation of the apparent rate of formation of unlabelled product from tracer competition experiments. When assays are performed using a fixed amount of [4′-^3H]-diclofenac and varying concentrations of unlabelled diclofenac, the velocity of formation of unlabelled product, v, is given by: v=v*/SAP equation 3 where v* is the velocity of formation of tritiated water. Substituting from equation 2, we obtain: v=v*x(^TV/K)/SA0 equation 4 Defining v′ as the velocity of formation of unlabelled product divided by the kinetic isotope effect, i.e. v′=v/(^TV/K) equation 5 we obtain v′=v*/SA0 equation 6 Without using the known ^TV/K ratio (which would be tautological, since it was derived from SAP), v′, the apparent formation rate of unlabelled product, can be calculated. When plotted against the substrate concentration, S, and fitted to the Hill equation (equation 7), V′max, S50, the substrate concentration at 50%, and n, the Hill coefficient, can be derived.
Background: Liver microsomes are vesicles of endoplasmic reticulum, rich in cytochrome P450 enzymes.

The target in data set [2] is T1, CYP2C9. The note with it: sulfaphenazole at 10 μM, 10 μM unlabelled diclofenac, FIG. 12.
The target in data set [3] is T1, CYP2C9. Briefly: in vitro. On the procedure: as §1
Quantification of 4′hydroxydiclofenac. Aliquots of the assay reaction mixture and of metabolite standard curves were analyzed by HPLC using an Agilent HP1100 liquid chromatograph (Agilent Technologies) equipped with a CTC Analytics PAL Autosampler (HTS PAL; CTC Analytics AG, Switzerland). Chromatography was performed on a XTERRA MS C18 column (4.6 mm×5 cm; 5 μm; Waters Corp., Medford, Mass.) at a flow rate of 2 mL/min, using a mobile phase consisting of a mixture of 0.1% formic acid in water (A) and 0.1% formic acid in acetonitrile (B) (linear gradient 0 to 0.5 min, 10% B; 3.0 min 90% B, 3.5 min 90% B, 3.6 min 10% B; the system was equilibrated for 1.4 minutes at 10% B prior to the next injection). The eluate was diverted to waste for the first minute, and then to a Sciex API-3000 triple quadruple mass spectrometer (available, for example, from Perkin Elmer, Boston, Mass.) with a Turbo Ionspray ionization source operated in the positive ion mode. […] Metabolite concentrations were determined by weighted linear least-squares regression analysis, using Analyst Quantitation Wizard software version 1.2 (Applied Biosystems, Foster City, Calif.).
To compare IC50 values of several known CYP2C9 inhibitors obtained in the radiometric assay with those obtained by conventional HPLC-mass spectrometric assay, reactions were performed in the absence or presence of different concentrations of known inhibitors. Tritiated water formation and formation of unlabelled reaction product 4′OH-diclofenac were determined in the same reaction mixture. The 4′-OH-diclofenac was quantified by HPLC coupled to triple quadruple mass spectrometric analysis.

For data set [4], the target named is T1, CYP2C9. The note with it: Cohen et al.; cited from earlier work.

T1 sequence (P11712 whole entry): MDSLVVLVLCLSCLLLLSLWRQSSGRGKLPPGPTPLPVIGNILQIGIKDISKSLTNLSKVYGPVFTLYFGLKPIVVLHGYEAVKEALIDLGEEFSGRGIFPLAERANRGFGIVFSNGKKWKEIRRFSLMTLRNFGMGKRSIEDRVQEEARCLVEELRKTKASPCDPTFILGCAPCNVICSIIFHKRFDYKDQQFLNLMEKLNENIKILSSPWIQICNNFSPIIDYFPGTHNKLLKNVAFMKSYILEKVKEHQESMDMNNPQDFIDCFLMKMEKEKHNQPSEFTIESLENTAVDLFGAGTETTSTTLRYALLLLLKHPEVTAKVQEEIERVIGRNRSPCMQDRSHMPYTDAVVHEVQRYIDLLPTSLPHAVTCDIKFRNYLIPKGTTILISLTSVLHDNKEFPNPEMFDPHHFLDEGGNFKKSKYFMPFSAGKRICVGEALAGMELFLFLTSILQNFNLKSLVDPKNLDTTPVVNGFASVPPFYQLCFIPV

On to `Cc1nc2c([nH]1)c(=O)n(C)c(=O)n2Cc1ccco1` [furafylline], for which the “effect on NADPH-dependent formation of tritiated water from [4′-3H]-diclofenac in HLM (in words)” value at CYP2C9 [1] (human, microsomes) is given as “none of these agents significantly affected”.

`Nc1ccc(S(=O)(=O)Nc2ccnn2-c2ccccc2)cc1` [Sulfaphenazole]: the “Ratio (radiometric/conventional)” value on CYP2C9 [1] came to 0.96. Moreover, the “effect on NADPH-dependent formation of tritiated water from [4′-3H]-diclofenac in HLM (in words)” value on CYP2C9 [1] (human, microsomes) was “inhibited”. Besides, the “effect on formation of tritiated water from [4′-3H]diclofenac in human hepatocytes (in words)” value on CYP2C9 [2] is “almost totally inhibited”.

The term IC50 denotes the concentration that gives 50% inhibition. Turning to `CC(=O)C[C@@H](c1ccccc1)c1c(O)c2ccccc2oc1=O` [S-Warfarin], the IC50 is 14.6 ± 2.3 µM at CYP2C9 [1] (read-out: IC50 (μM) radiometric, HLM, formation rate of [3H]-H2O from [4′-3H]-diclofenac, mean ± SEM, n = 2) and 8.7 ± 3.6 µM at CYP2C9 [3] (read-out: IC50 (μM) Conventional, HLM, formation rate of 4′-hydroxydiclofenac by LC-MS/MS, same reaction mixture, mean ± SEM, n = 2).

As for `COc1ccc2[nH]c([S+]([O-])Cc3ncc(C)c(OC)c3C)nc2c1` (centres unmarked) [Omeprazole], at CYP2C9 [1], half-maximal inhibition (IC50) required 43.8 ± 10.4 µM and the “Ratio (radiometric/conventional)” value was 1.04. For the same compound, on CYP2C9 [3], 42.3 ± 15.3 µM corresponded to half-maximal inhibition (IC50).

As a reminder, the Km is the substrate concentration at which the rate is half of its maximum. Regarding `O=C(O)Cc1ccccc1Nc1c(Cl)cccc1Cl` [diclofenac], the “ratio between V′max and Vmax” value on CYP2C9 [1] is given as 0.9. Moreover, on CYP2C9 [1] (human, 10 min, pH 7.6), the “Hill coefficient n (v′ vs. S)” value is recorded as 1.15±0.05 and the “V′max (apparent maximal rate of product formation)” value was 1.5 ± 0.1 nmol/min/mg. Moreover, the Km at 10 min at CYP2C9 [1] (human, microsomes, pH 7.6) was 6.8 ± 1 µM. Moreover, on CYP2C9 [3] (human, 10 min, pH 7.6), the “Hill coefficient of 4′-hydroxydiclofenac formation” value was determined as 1.1±0.1. On CYP2C9 [3] (human, microsomes, pH 7.6), the Km at 10 min worked out at 6.2 ± 0.9 µM. For the same compound, the Km on CYP2C9 [3] (human, pH 7.6) was about 6 µM.

With `COCC(=O)O[C@]1(CCN(C)CCCc2nc3ccccc3[nH]2)CCc2cc(F)ccc2[C@@H]1C(C)C` [Mibefradil], the figures for the IC50 at CYP2C9 [1] and at CYP2C9 [3] were 40 ± 5 µM and 57.6 ± 9.9 µM, respectively. Further, the “Ratio (radiometric/conventional)” value at CYP2C9 [1] is reported as 0.69.

Regarding `CC(=O)CC(c1ccccc1)c1c(O)c2ccccc2oc1=O` (centres unmarked) [warfarin], at CYP2C9 [4], the “inhibitor of CYP2C9 when probed with the fluorogenic substrate MFC” value is given as “not”.

As for `CC(=O)[C@H]1CC[C@H]2[C@@H]3CCC4=CC(=O)CC[C@]4(C)[C@H]3CC[C@]12C` [Progesterone], at CYP2C9 [1], half-maximal inhibition (IC50) required 25.2 ± 3.1 µM and the “Ratio (radiometric/conventional)” value is reported as 1.26. At CYP2C9 [3], this compound had an IC50 of 20 ± 4.6 µM.

With `COc1ccc2c(c1)c(CC(=O)O)c(C)n2C(=O)c1ccc(Cl)cc1` [Indomethacin], on CYP2C9 [1], the half-inhibitory concentration (IC50) is 54.8 ± 8.1 µM and the “Ratio (radiometric/conventional)” value stood at 0.96. This compound returned an IC50 against CYP2C9 [3] of 57 ± 10.5 µM.

Consider `Cc1ccc(C)c(OCCCC(C)(C)C(=O)O)c1` [Gemfibrozil], for which the concentration for half-maximal inhibition (IC50) was determined as 27.7 ± 6.9 µM on CYP2C9 [1] and 39.1 ± 7.1 µM on CYP2C9 [3]. Moreover, the “Ratio (radiometric/conventional)” value on CYP2C9 [1] turned out to be 0.71.

For `Clc1ccc(COC(Cn2ccnc2)c2ccc(Cl)cc2Cl)c(Cl)c1` (centres unmarked) [Miconazole], on CYP2C9 [1], the IC50 came out at 0.2 ± 0.02 µM and the “Ratio (radiometric/conventional)” value was 1.54. For the same compound, it took 0.13 ± 0.03 µM to reach half-maximal inhibition on CYP2C9 [3] (IC50).

For the compound `CCCCC1C(=O)N(c2ccccc2)N(c2ccccc2)C1=O` [Phenylbutazone], on CYP2C9 [1], the half-maximal inhibitory concentration (IC50) was found to be 41.4 ± 6.5 µM and the “Ratio (radiometric/conventional)” value was found to be 0.94. On CYP2C9 [3], the IC50 was 44.2 ± 2.2 µM.
